According to patent US20110105462A1, “MODULATORS OF DOPAMINE NEUROTRANSMISSION” (NSAB, FILIAL AF NEUROSEARCH SWEDEN AB, SVERIGE, priority 2008, published 2011):
Structures can show the parent of a compound that is named as a salt.

Columns and labels:
drug-naive rats = test: Locomotor activity in drug-naive rats (in vivo behaviour); set-up: species or system rat; settings: recorded for 60 minutes immediately after drug administration
From the text: Photobeam sensors are spaced 2.5 cm apart.

[1] = system: DOPAC (3,4-dihydroxyphenylacetic acid) in the rat striatum; test: Increase of DOPAC in the rat striatum after systemic administration (in vivo neurochemistry); settings: sc, systemic administration (s.c.), curve fitting, 95% range printed in the row below each value, read-out: ED50 DOPAC* (estimated ED50 on increase of DOPAC in the rat striatum)
From the text: After the behavioural activity sessions, the rats are decapitated and their brains rapidly taken out and put on an ice-cold petri-dish. The limbic forebrain, the striatum, the frontal cortex and the remaining hemispheral parts of each rat are dissected and frozen. Each brain part is subsequently analyzed with respect to its content of monoamines and their metabolites.
The monoamine transmitter substances (NA (noradrenaline), DA (dopamine), 5-HT (serotonin)) as well as their amine (NM (normethanephrine), 3-MT (3-methoxytyramine)) and acid (DOPAC (3,4-dihydroxyphenylacetic acid), 5-HIAA (5-hydroxyindoleacetic acid), HVA (homovanillic acid)) metabolites are quantified in brain tissue homogenates by HPLC separations and electrochemical detection
The analytical method is based on two chromatographic separations dedicated for amines or acids. Two chromatographic systems share a common auto injector with a 10-port valve and two sample loops for simultaneous injection on the two systems. Both systems are equipped with a reverse phase column (Luna C18(2), dp 3 μm, 50*2 mm i.d., Phenomenex) and electrochemical detection is accomplished at two potentials on glassy carbon electrodes (MF-1000, Bioanalytical Systems, Inc.). The column effluent is passed via a T-connection to the detection cell or to a waste outlet. This is accomplished by two solenoid valves, which block either the waste or detector outlet. By preventing the chromatographic front from reaching the detector, better detection conditions are achieved. The aqueous mobile phase (0.4 ml/min) for the acid system contains citric acid 14 mM, sodium citrate 10 mM, MeOH 15% (v/v) and EDTA 0.1 mM. Detection potentials relative to Ag/AgCl reference are 0.45 and 0.60V. The aqueous ion pairing mobile phase (0.5 ml/min) for the amine system contains citric acid 5 mM, sodium citrate 10 mM, MeOH 9% (v/v), MeCN 10.5% v/v), decane sulfonic acid 0.45 mM, and EDTA 0.1 mM. Detection potentials relative to Ag/AgCl reference are 0.45 and 0.65V.
ED50 values for the increase of DOPAC in striatum are calculated by curve fitting.

Row | Structure (SMILES) | melting point [°C] | Locomotor activity (counts/60 min ± SEM) (drug-naive rats; 3.7 μmol/kg) [counts/60 min] | Locomotor activity (counts/60 min ± SEM) (drug-naive rats; 11 μmol/kg) [counts/60 min] | Locomotor activity (counts/60 min ± SEM) (drug-naive rats; 33 μmol/kg) [counts/60 min] | ED50 [1] [µmol/kg]
1 | CCCNCC1COc2ccc(OS(=O)(=O)C(F)(F)F)cc2O1 (centres unmarked) [Example 6, 3-[(PROPYLAMINO)METHYL]-2,3-DIHYDRO-1,4-BENZODIOXIN-6-YL TRIFLUOROMETHANESULFONATE] | – | 9495 ± 2036 | 10705 ± 1903 | 8064 ± 707 | 12
2 | Fc1ccc2c(c1)O[C@@H](CN1CCCC1)CO2 [Example 9, 1-{[(2S)-7-FLUORO-2,3-DIHYDRO-1,4-BENZODIOXIN-2-YL]METHYL}PYRROLIDINE] | – | 5419 ± 1414 | 2769 ± 647 | 1944 ± 482 | –
3 | CCCNC[C@H]1COc2ccc(C(F)(F)F)cc2O1 [Example 58, N-{[(2S)-7-(TRIFLUOROMETHYL)-2,3-DIHYDRO-1,4-BENZODIOXIN-2-YL]METHYL}PROPAN-1-AMINE] | – | – | – | – | < 3.7
4 | CCCNC[C@H]1COc2ccc(Br)cc2O1 [Example 1, N-{[(2S)-7-BROMO-2,3-DIHYDRO-1,4-BENZODIOXIN-2-YL]METHYL}PROPAN-1-AMINE] | – | 6714 ± 601 | 5111 ± 620 | 1326 ± 131 | 3.4
5 | CCCNCC1COc2c(F)cc(F)cc2O1 (centres unmarked) [Example 8, N-[(5,7-DIFLUORO-2,3-DIHYDRO-1,4-BENZODIOXIN-2-YL)METHYL]PROPAN-1-AMINE] | – | 9266 ± 2706 | 8320 ± 2405 | 5457 ± 536 | 14
6 | CCCNCC1COc2ccc(F)cc2O1 (centres unmarked) (as salt: hydrochloric acid salt) [Example 3, N-[(7-FLUORO-2,3-DIHYDRO-1,4-BENZODIOXIN-2-YL)METHYL]PROPAN-1-AMINE] | 187 | – | – | – | –
7 | CCCNCC1COc2ccc(F)c(F)c2O1 (centres unmarked) [Example 7, N-[(7,8-DIFLUORO-2,3-DIHYDRO-1,4-BENZODIOXIN-2-YL)METHYL]PROPAN-1-AMINE] | – | 7932 ± 2067 | 6884 ± 400 | 4408 ± 212 | 3.1
8 | CCCNCC1COc2c(F)cc(F)cc2O1 (centres unmarked) (as salt: hydrochloric acid salt) [Example 8, N-[(5,7-DIFLUORO-2,3-DIHYDRO-1,4-BENZODIOXIN-2-YL)METHYL]PROPAN-1-AMINE] | 157 | – | – | – | –
9 | CCCNC[C@H]1COc2ccc(Br)cc2O1 (as salt: hydrochloric acid salt) [Example 1, N-{[(2S)-7-BROMO-2,3-DIHYDRO-1,4-BENZODIOXIN-2-YL]METHYL}PROPAN-1-AMINE] | 194 | – | – | – | –

Further lines, with some results ahead:

Row | melting point [°C] | Structure (SMILES) | Locomotor activity (counts/60 min ± SEM) (drug-naive rats; 3.7 μmol/kg) [counts/60 min] | Locomotor activity (counts/60 min ± SEM) (drug-naive rats; 11 μmol/kg) [counts/60 min] | Locomotor activity (counts/60 min ± SEM) (drug-naive rats; 33 μmol/kg) [counts/60 min] | ED50 [1] [µmol/kg]
10 | 191 | CCCNCC1COc2ccc(Cl)cc2O1 (centres unmarked) (as salt: hydrochloric acid salt) [Example 4, N-[(7-CHLORO-2,3-DIHYDRO-1,4-BENZODIOXIN-2-YL)METHYL]PROPAN-1-AMINE] | – | – | – | –
11 | 166 | CCCNC[C@H]1COc2ccc(C(F)(F)F)cc2O1 (as salt: hydrochloric acid salt) [Example 58, N-{[(2S)-7-(TRIFLUOROMETHYL)-2,3-DIHYDRO-1,4-BENZODIOXIN-2-YL]METHYL}PROPAN-1-AMINE] | – | – | – | –
12 | 184 | CCCNCC1COc2ccc(F)c(F)c2O1 (centres unmarked) (as salt: hydrochloric acid salt) [Example 7, N-[(7,8-DIFLUORO-2,3-DIHYDRO-1,4-BENZODIOXIN-2-YL)METHYL]PROPAN-1-AMINE] | – | – | – | –
13 | 215 | Fc1ccc2c(c1)O[C@@H](CN1CCCC1)CO2 (as salt: hydrochloric acid salt) [Example 9, 1-{[(2S)-7-FLUORO-2,3-DIHYDRO-1,4-BENZODIOXIN-2-YL]METHYL}PYRROLIDINE] | – | – | – | –
14 | 262 | CCCNCC1COc2cc(F)c(F)cc2O1 (centres unmarked) (as salt: hydrobromic acid salt) [Example 2, N-[(6,7-DIFLUORO-2,3-DIHYDRO-1,4-BENZODIOXIN-2-YL)METHYL]PROPAN-1-AMINE] | – | – | – | –
15 | 163 | CCCNCC1COc2ccc(OS(=O)(=O)C(F)(F)F)cc2O1 (centres unmarked) (as salt: fumaric acid salt) [Example 6, 3-[(PROPYLAMINO)METHYL]-2,3-DIHYDRO-1,4-BENZODIOXIN-6-YL TRIFLUOROMETHANESULFONATE] | – | – | – | –
